Laboratory results reported in patent publication US4521598A, “3-Azidocephalosporins” (priority 1983, dated 1985).
Converted amounts (≈) assume the structure as drawn. Counter-ions that a name gives are not always drawn. Like-named read-outs stand apart in the source and are kept apart here.

How the values were obtained:
[1] = tested on: Streptococcus epidermidis; experiment: Agar dilution method, MIC; assay type: cell-based
Salmonella typhi = experiment: Agar dilution method, MIC
Pseudomonas aeruginosa = experiment: Disc plate assay, zone of inhibition; assay type: cell-based; settings: concentration 1 mg./ml.
Procedure: (§1) The 7-acylamino-3-azido-3-cephem-4-carboxylic acids and the salts thereof inhibit the growth of bacteria pathogenic to man and animals. […] For example, 7β-(2-thienylacetamido)-3-azido-3-cephem-4-carboxylic acid inhibited the growth of various organisms as shown in the following Table 1.
(§2) ^1 concentration 1 mg./ml.

Salmonella gallinarum = experiment: Disc plate assay, zone of inhibition; assay type: cell-based; settings: Salmonella enterica, concentration 1 mg./ml.
Procedure: as §1, §2

Serratia marcescens = experiment: Disc plate assay, zone of inhibition; assay type: cell-based; settings: concentration 1 mg./ml.
Procedure: as §1, §2

[2] = tested on: Saccharomyces postorianus; experiment: Disc plate assay, zone of inhibition; assay type: cell-based; settings: concentration 1 mg./ml.
Procedure: as §1, §2

Bacillus subtilis = experiment: Disc plate assay, zone of inhibition; assay type: cell-based; settings: for zone of inhibition at 3000 µg/mL: read-out: Zone of Inhibition (mm. diam.)
Streptococcus sp. D = experiment: Agar dilution method, MIC; assay type: cell-based
Proteus vulgaris = experiment: Disc plate assay, zone of inhibition; assay type: cell-based
Pseudomonas solanacearum = experiment: microbe, parasite or virus in culture; assay type: cell-based; settings: Ralstonia solanacearum; for zone of inhibition at 3000 µg/mL: read-out: Zone of Inhibition (mm. diam.)
Candida albicans = experiment: Disc plate assay, zone of inhibition; assay type: cell-based
Procedure: as §1, §2
(§3) The 3-amino-2-substituted-3-cephem compounds (formula 5) as the free acids or salts thereof and the bicyclo nonenes (formula 6) as the free acids or salts thereof are antibacterial agents which inhibit the growth of bacteria pathogenic to man and animals. In Table 3 below the in vitro antibacterial properties of the three isomeric products represented by formulae 5 and 6 obtained in the disc-plate method is tabulated.

[3] = tested on: Trichophyton mentagrophytes; experiment: Disc plate assay, zone of inhibition; assay type: cell-based
Procedure: as §1, §2, §3

Staphylococcus aureus [4] = experiment: Disc plate assay, zone of inhibition; assay type: cell-based; settings: for zone of inhibition at 3000 µg/mL: read-out: Zone of Inhibition (mm. diam.)
Staphylococcus aureus [5] = experiment: Agar dilution method, MIC; assay type: cell-based
Serratia = experiment: Agar dilution method, MIC; assay type: cell-based; settings: strains of Serratia
[6] = tested on: Bacillus stearothyermophilus; experiment: Disc plate assay, zone of inhibition; assay type: cell-based; settings: for zone of inhibition at 3000 µg/mL: read-out: Zone of Inhibition (mm. diam.)
Enterobacter aerogenes = experiment: Agar dilution method, MIC; assay type: cell-based
Haemophilus influenzae = experiment: Agar dilution method, MIC; assay type: cell-based
Enterobacter cloacae = experiment: Agar dilution method, MIC; assay type: cell-based
Micrococcus luteus = experiment: Disc plate assay, zone of inhibition; assay type: cell-based; settings: for zone of inhibition at 3000 µg/mL: read-out: Zone of Inhibition (mm. diam.)
Streptococcus pneumoniae = experiment: Agar dilution method, MIC; assay type: cell-based; settings: strain Park
Pseudomonas = experiment: Agar dilution method, MIC; assay type: cell-based; settings: strains of Pseudomonas
Escherichia coli [7] = experiment: Disc plate assay, zone of inhibition; assay type: cell-based; settings: for zone of inhibition at 3000 µg/mL: read-out: Zone of Inhibition (mm. diam.)
Proteus = experiment: Agar dilution method, MIC; assay type: cell-based; settings: strains of Proteus
Escherichia coli [8] = experiment: Agar dilution method, MIC; assay type: cell-based
Streptococcus pyogenes = experiment: Agar dilution method, MIC; assay type: cell-based; settings: strain C203
Klebsiella pneumoniae = experiment: Agar dilution method, MIC; assay type: cell-based

With `[N-]=[N+]=NC1=C(C(=O)O)N2C(=O)[C@@H](NC(=O)Cc3cccs3)[C@H]2SC1` [7β-(2-Thienylacetamido)-3-azido-3-cephem-4-carboxylic acid] the MIC ([1]; strain 222) was 4 µg/mL (≈ 10.9 µM), the MIC ([1]; strain EP11) was 16 µg/mL (≈ 43.8 µM) and the MIC (Salmonella typhi; Salmonella enterica, TYPHI) was 16 µg/mL (≈ 43.8 µM). For the same compound, the MIC (Salmonella typhi; strain 1335) was 16 µg/mL (≈ 43.8 µM), the “detectable zone of inhibition” value (Pseudomonas aeruginosa) was “failed to produce a detectable zone of inhibition” and the zone of inhibition at 1000 µg/mL (Salmonella gallinarum) was 19 mm. For the same compound, the “detectable zone of inhibition” value (Serratia marcescens) was “failed to produce a detectable zone of inhibition”, the “detectable zone of inhibition” value [2] was “failed to produce a detectable zone of inhibition” and the zone of inhibition at 1000 µg/mL (Bacillus subtilis; Bacillus subtilis, concentration 1 mg./ml.) was 30 mm. The MIC (Streptococcus sp. D; Streptococcus, strain X66, read-out: MIC) was 128 µg/mL (≈ 350 µM), the MIC (Streptococcus sp. D; strain 2041) was 128 µg/mL (≈ 350 µM) and the zone of inhibition at 1000 µg/mL (Proteus vulgaris; Proteus vulgaris, concentration 1 mg./ml.) was 25 mm. For the same compound, the zone of inhibition at 1000 µg/mL (Pseudomonas solanacearum) was 29 mm, the “detectable zone of inhibition” value (Candida albicans; concentration 1 mg./ml.) was “failed to produce a detectable zone of inhibition” and the “detectable zone of inhibition” value ([3]; concentration 1 mg./ml.) was “failed to produce a detectable zone of inhibition”. For the same compound, the zone of inhibition at 1000 µg/mL (Staphylococcus aureus [4]; Staphylococcus aureus, concentration 1 mg./ml.) was 30 mm, the MIC (Staphylococcus aureus [5]; strain S13E) was 64 µg/mL (≈ 175 µM) and the MIC (Staphylococcus aureus [5]; strain V41, read-out: MIC) was 64 µg/mL (≈ 175 µM). It also gave an MIC (Staphylococcus aureus [5]; strain X1.1, read-out: MIC) of 8 µg/mL (≈ 21.9 µM), an MIC (Staphylococcus aureus [5]; strain X400, read-out: MIC) of 128 µg/mL (≈ 350 µM) and an MIC (Serratia) of at least 128 µg/mL. For the same compound, the zone of inhibition at 1000 µg/mL ([6]; Bacillus, concentration 1 mg./ml.) was 20 mm, the MIC (Enterobacter aerogenes; Klebsiella aerogenes, strain C32, read-out: MIC) was 128 µg/mL (≈ 350 µM) and the MIC (Enterobacter aerogenes; strain EB17) was 128 µg/mL (≈ 350 µM). It also gave an MIC (Haemophilus influenzae; strain 76) of 4 µg/mL (≈ 10.9 µM), an MIC (Haemophilus influenzae; strain C.L.) of 16 µg/mL (≈ 43.8 µM) and an MIC (Enterobacter cloacae; Enterobacter cloacae, strain EB5, read-out: MIC) of 128 µg/mL (≈ 350 µM). The MIC (Enterobacter cloacae; strain 265A) was 128 µg/mL (≈ 350 µM), the zone of inhibition at 1000 µg/mL (Micrococcus luteus; Micrococcus luteus, concentration 1 mg./ml.) was 23 mm and the MIC (Streptococcus pneumoniae) was 0.25 µg/mL (≈ 0.684 µM). For the same compound, the MIC (Pseudomonas) was at least 128 µg/mL, the zone of inhibition at 1000 µg/mL (Escherichia coli [7]; Escherichia coli, concentration 1 mg./ml.) was 21 mm and the MIC (Proteus) was at least 128 µg/mL. For the same compound, the MIC (Escherichia coli [8]) was 128 µg/mL (≈ 350 µM), the MIC (Escherichia coli [8]; strain EC14, read-out: MIC) was 16 µg/mL (≈ 43.8 µM) and the MIC (Escherichia coli [8]; strain N10, read-out: MIC) was 64 µg/mL (≈ 175 µM). It also gave an MIC (Streptococcus pyogenes) of 0.5 µg/mL (≈ 1.37 µM), an MIC (Klebsiella pneumoniae) of 128 µg/mL (≈ 350 µM) and an MIC (Klebsiella pneumoniae; strain X26, read-out: MIC) of 4 µg/mL (≈ 10.9 µM). For the same compound, the MIC (Klebsiella pneumoniae; strain X68, read-out: MIC) was 16 µg/mL (≈ 43.8 µM).

For `COC1=N[C@@H](C(=O)[O-])N2C(=O)[C@H](NC(=O)Cc3cccs3)[C@@H]2SC1.[Na+]` [Compound A, [2R-(2α,7α,8β)],-4-Methoxy-9-oxo-8-[(2-thienylacetyl)-amino]-6-thia-1,3-diazabicyclo[5.2.0]non-3-ene-2-carboxylic acid sodium salt], the “Zone of Inhibition (mm. diam.)” value (Bacillus subtilis; Concentration: 3 mg./ml.) was 15 mm, the “Zone of Inhibition (mm. diam.)” value ([3]; Concentration: 3 mg./ml.) was “tr” and the “Zone of Inhibition (mm. diam.)” value (Staphylococcus aureus [4]; Concentration: 3 mg./ml.) was 18 mm. For the same compound, the “Zone of Inhibition (mm. diam.)” value ([6]; Concentration: 3 mg./ml.) was 11 mm, the “Zone of Inhibition (mm. diam.)” value (Micrococcus luteus; Concentration: 3 mg./ml.) was 10 mm and the “Zone of Inhibition (mm. diam.)” value (Escherichia coli [7]; Concentration: 3 mg./ml.) was 12 mm.

`COC1=NCS[C@@H]2[C@H](NC(=O)Cc3cccs3)C(=O)N2[C@H]1C(=O)O` [Compound B, [2R-(2α,7α,8β)],-3-Methoxy-9-oxo-8-[(2-thienylacetyl)-amino]-6-thia-1,4-diaza[5.2.0]non-3-ene-2-carboxylic acid sodium salt] showed a zone of inhibition at 3000 µg/mL (Bacillus subtilis; Bacillus subtilis, Concentration: 3 mg./ml.) of 27 mm, a zone of inhibition at 3000 µg/mL (Pseudomonas solanacearum) of 12 mm and a zone of inhibition at 3000 µg/mL (Candida albicans; Candida albicans, Concentration: 3 mg./ml., read-out: Zone of Inhibition (mm. diam.)) of 13 mm. For the same compound, the zone of inhibition at 3000 µg/mL (Staphylococcus aureus [4]; Staphylococcus aureus, Concentration: 3 mg./ml.) was 29 mm, the zone of inhibition at 3000 µg/mL ([6]; Bacillus, Concentration: 3 mg./ml.) was 34 mm and the zone of inhibition at 3000 µg/mL (Micrococcus luteus; Micrococcus luteus, Concentration: 3 mg./ml.) was 25 mm. It also gave a zone of inhibition at 3000 µg/mL (Escherichia coli [7]; Escherichia coli, Concentration: 3 mg./ml.) of 25 mm.

For `COC1S[C@@H]2[C@H](NC(=O)Cc3cccs3)C(=O)N2C(C(=O)[O-])=C1N.[Na+]` (stereo partly drawn) [Compound C, Sodium 7β-[(2-thienylacetyl)amino]-2-methoxy-3-amino-3-cephem-4-carboxylate], the zone of inhibition at 3000 µg/mL (Bacillus subtilis; Bacillus subtilis) was 30 mm, the “Zone of Inhibition (mm. diam.)” value (Proteus vulgaris; Concentration: 3 mg./ml.) was “tr” and the zone of inhibition at 3000 µg/mL (Pseudomonas solanacearum) was 11 mm. It also gave a zone of inhibition at 3000 µg/mL (Staphylococcus aureus [4]; Staphylococcus aureus) of 29 mm, a zone of inhibition at 3000 µg/mL ([6]; Bacillus) of 36 mm and a zone of inhibition at 3000 µg/mL (Micrococcus luteus; Micrococcus luteus) of 24 mm. The zone of inhibition at 3000 µg/mL (Escherichia coli [7]; Escherichia coli) was 30 mm.
